Measurements from paper PMC10974505, “Evaluation of the Antifungal and Antiproliferative Properties of the Lichen Roccella tinctoria DC. Extracts and Main Components” (Pharmaceutics, 2024).
Converted amounts (≈) assume the structure as drawn.

Columns and labels:
[1] = system: A549 lung cancer cells; test: MTT cytotoxicity assay, A549 lung cancer cells; assay type: cell-based, human; details: for cytotoxicity at the highest concentration tested: A549 cells, 500 µg/mL
From the text: (§1) A549 cells were kindly provided by Prof. Lucia Nencioni (Dept. of Public Health and Infectious Diseases, Sapienza University of Rome, Rome, Italy), while Mz-ChA-1 and H69 cells were donated by Prof. Romina […]. of Anatomical, Histological, Forensic and Orthopedic Sciences, Sapienza University of Rome, Rome, Italy) and Prof. […] (Indiana University School of Medicine, Indianapolis, IN, USA). BEAS-2B cells were provided by Sigma-Aldrich (St. Louis, MO, USA). […] The growth media were replaced twice per week; subcultures were prepared when the cells achieved approximately 80% confluency. […] In brief, 2 × 10^4 cells/well were cultured into 96-well microplates for 24 h. Then, they were subjected to a treatment with progressive concentrations of the tested extracts for further 24 h. […] The effect of the treatments on the cell viability was expressed as percentage of the vehicle control. […] In addition, tolerability studies in human epithelial BEAS-2B bronchial cells and H69 cholangiocytes were performed in order to establish the possible selective cytotoxicity of the tested samples to cancer cells.

[2] = system: BEAS-2B bronchial cells; test: MTT tolerability assay, noncancerous BEAS-2B bronchial cells; assay type: cell-based, human; details: for IC50: Homo sapiens, BEAS-2B, read-out: IC50 [µg/mL] (CL) BEAS-2B; for inhibition of BEAS-2B cell viability: 50 µg/mL
From the text: as §1

[3] = system: Mz-ChA-1 cholangiocarcinoma cells; test: MTT cytotoxicity assay, Mz-ChA-1 cholangiocarcinoma cells; assay type: cell-based, human; details: for cytotoxicity at the highest concentration tested: Mz-ChA-1 cells, 500 µg/mL
From the text: as §1

[4] = system: H69 cholangiocytes; test: MTT tolerability assay, noncancerous H69 cholangiocytes; assay type: cell-based, human; details: MTT, 24 h treatment, confidence limits in brackets, ne 1 = not evaluable, highest inhibitory effect lower than 80%, ne 2 = not evaluable, lower inhibitory effect higher than 40%; for IC50: Homo sapiens, read-out: IC50 [µg/mL] (CL) H69
From the text: as §1

[5] = as above; assay type: cell-based, human; details: human, SV40-immortalized H69 cholangiocytes (noncancerous); 50 µg/mL; read-out: lowering of H69 cell viability
From the text: as §1

[6] = system: C. albicans planktonic cells; test: Antifungal susceptibility test (broth microdilution), planktonic cells; assay type: cell-based, Candida albicans ATCC 10231; details: for MIC50 / MIC90 / MIC: Candida albicans; for MIC50: read-out: GM MIC50; for MIC90: minimum inhibitory concentration of 90% fungal growth, read-out: GM MIC90; for MIC: minimum inhibitory concentration of 100% fungal growth, read-out: GM MIC100
Method: Candida albicans ATCC 10231 was obtained from the American Type Culture Collection (ATCC, Rockville, MD, USA). The antifungal effects of the isolated compounds and of the extracts against C. albicans ATCC 10231 were measured using the broth microdilution method following the standardized methods for yeast. C. albicans was cultured on Sabouraud dextrose agar (Sigma Aldrich, St. Louis, MO, USA) at 35 °C for 24 h. The final concentration of the inoculum was 2500 cells/mL. The extracts and the compounds were firstly dissolved in DMSO and then diluted at least 100-times with RPMI-1640 medium buffered with MOPS (4-morpholinepropanesulfonic acid). […] The minimal inhibitory concentration (MIC) was calculated by comparison of the growth in each well with that of the drug-free control after 24 h. Each experiment was conducted in triplicate and replicated at least three times on different dates.
The antifungal activity of extracts and isolated compounds against C. albicans planktonic cells was examined following the standardized broth microdilution method for yeasts (CLSI M27-A3).

[7] = system: C. albicans biofilm; test: Anti-Candida biofilm formation, 48 h (CV assay); assay type: cell-based; details: 512 μg/mL
Method: Candida biofilm was established on flat-bottomed, 48-well microtiter plates, following previous protocols with minor modifications. […] Plates were then incubated for 48 h at 37 °C. After biofilm formation, the medium was aspirated, and non-adherent cells were removed by washing twice with phosphate-buffered saline (PBS). C. albicans biomass was quantified using CV assay.
(§2) Candida adhesion is followed by the colonization and formation of the biofilm, which is a community of cells with the ability to secrete the extracellular matrix (ECM). Biofilm-characterized infections are the most difficult to treat, and preventing biofilm formation could be of major importance. An anti-Candida biofilm formation assay was conducted after 24 h and 48 h of biofilm incubation, and the total biomass was evaluated using the CV assay.

[8] = system: C. albicans ATCC 10231; test: Galleria mellonella survival assay (larvae infected with C. albicans); assay type: in vivo
Method: The survival assay was carried out as described by Cairone and colleagues. G. mellonella larvae weighed 0.3 ± 0.03 g and were obtained from Todaro Sport (Rome, Italy). […] Three control groups were used, one with no treatment applied, one pierced and inoculated with sterile saline solution, and one treated with C. albicans suspension. The larvae were subsequently placed in an incubator set at 37 °C and observed for 120 h. […] Each trial was replicated three times, and the outcomes were documented as the survival percentage.
G. mellonella larvae as an in vivo model were chosen due to the similarities between their immunity system and the mammalian one. Furthermore, G. mellonella larvae provide a well-established in vivo model known for its ease of handling and utilization. They are extensively employed to assess the antimicrobial efficacy of both chemical and natural compounds, aligning with the ethical guidelines of the 3Rs (Replacement, Reduction, and Refinement) in animal research.

[9] = system: Alternaria solani; set-up: method as in doi:10.4038/jnsfsr.v40i1.4167; details: 100 µg/mL; cited from earlier work
[10] = system: Fusarium oxysporum; set-up: method as in doi:10.4038/jnsfsr.v40i1.4167; details: 100 µg/mL; cited from earlier work
[11] = system: C. albicans biofilm; test: Anti-Candida biofilm formation, 24 h (CV assay); assay type: cell-based, Candida albicans; details: concentration not given
Method: Presterilized, polystyrene, flat-bottom 48-well microtiter plates were used to investigate anti-Candida adhesion property of the extracts and the compounds [47, 48]. […] After that time, the cell suspensions were aspirated, and each well was washed twice with PBS to remove loosely adherent cells. Thus, CV assay was used to quantitatively study Candida adhesion (90 min) and early biofilm formation (24 h). The biomass was measured at 590 nm using a microplate reader.
as §2

[12] = system: MCF-7 (breast cancer cell line); set-up: method as in doi:10.32508/stdjns.v2i5.779; details: MCF-7, 100 µg/mL; isolated from Roccella sinensis; cited from earlier work
[13] = system: HeLa (cervical cancer cell line); set-up: method as in doi:10.32508/stdjns.v2i5.779; details: 100 µg/mL, isolated from Roccella sinensis; cited from earlier work
[14] = system: HepG2 (liver hepatocellular carcinoma cell line); set-up: method as in doi:10.32508/stdjns.v2i5.779; details: HepG2, 100 µg/mL; isolated from Roccella sinensis; cited from earlier work
[15] = system: NCI-H460 (human lung cancer cell line); set-up: method as in doi:10.32508/stdjns.v2i5.779; details: NCI-H460, 100 µg/mL; isolated from Roccella sinensis; cited from earlier work
[16] = system: different fungal strains including C. albicans; set-up: method as in PMID 30732479; details: cited from earlier work
[17] = system: HCT-116 colon cancer cells; set-up: method as in PMID 35190352; details: cited from earlier work
[18] = MTT, 24 h treatment, confidence limits in brackets, ne 1 = not evaluable, highest inhibitory effect lower than 80%, ne 2 = not evaluable, lower inhibitory effect higher than 40%
[19] = geometric mean, minimum inhibitory concentration of 50% fungal growth, 24 h

SMILES	IC50 [2, 18] [µg/mL]	IC50 [4] [µg/mL]	cytotoxicity at the highest concentration tested [1]	IC50 [µg/mL] (CL) A549 [1, 18]	inhibition of BEAS-2B cell viability [2]	IC50 [µg/mL] (CL) Mz-ChA-1 [3, 18]	cytotoxicity at the highest concentration tested [3]	cytotoxicity at 24 h, 50 µg/mL [5] [%]	MIC50 [6, 19] [µg/mL]	MIC90 ([6]; geometric mean, 24 h) [µg/mL]	MIC ([6]; geometric mean, 24 h) [µg/mL]	also measured
COc1cccc2c1C(=O)c1c(O)c3c(c(O)c1C2=O)C[C@@](O)(C(=O)CO)C[C@@H]3O[C@H]1C[C@H](N)[C@H](O)[C@H](C)O1 [Doxorubicin, doxorubicin, reference compound]	4.1 (≈ 7.54 µM)	15.7 (≈ 28.9 µM)	–	–	–	–	–	–	–	–	–	IC50 ([1]; Homo sapiens, A549, MTT, 24 h treatment, confidence limits in brackets, ne 1 = not evaluable, highest inhibitory effect lower than 80%, ne 2 = not evaluable, lower inhibitory effect higher than 40%, read-out: IC50 [µg/mL] (CL) A549): 17.3 µg/mL (≈ 31.8 µM); IC50 ([3]; Homo sapiens, MTT, 24 h treatment, confidence limits in brackets, ne 1 = not evaluable, highest inhibitory effect lower than 80%, ne 2 = not evaluable, lower inhibitory effect higher than 40%, read-out: IC50 [µg/mL] (CL) Mz-ChA-1): 24.5 µg/mL (≈ 45.1 µM)
COC(=O)c1c(C)cc(O)cc1O [Compound 2, methyl orsellinate]	103 (≈ 564 µM)	–	lower than 50%	ne ^1	at least 40%	ne ^1	lower than 50%	60	87 (≈ 478 µM)	> 128	> 128	IC50 [µg/mL] (CL) H69 [4]: ne ^2; GM MIC50 [6, 19]: 87 µg/mL; inhibition at 512 µg/mL [7]: 72%; larvae survival rate ([8]; 512 μg/mL (10 μL), after 5 days, infected control survival 10%): 50%; inhibition percentage [9]: 58.41%; inhibition percentage [10]: 67.39%
Cc1cc(OC(=O)c2c(C)cc(O)cc2O)cc(O)c1C(=O)OCC(O)C(O)CO (centres unmarked) [Compound 1, erythrin]	–	138 (≈ 327 µM)	at least 60%	ne ^1	at least 40%	ne ^1	at least 60%	~40	> 128	> 128	> 128	IC50 [µg/mL] (CL) BEAS-2B [2, 18]: ne ^2; activity against the planktonic growth of C. albicans ([6]; at the highest concentration (512 μg/mL)): no activity; percent rate of inhibition of biofilm formation [11]: lower than 40%; infected larvae mortality rate ([8]; 256 μg/mL (10 μL), control group mortality 90%): 20%; toxicity [12]: nontoxic; toxicity [13]: nontoxic; toxicity [14]: nontoxic; toxicity [15]: nontoxic; antifungal activity [16]: not shown any antifungal activity
Cc1cc(OC(=O)c2c(C)cc(O)cc2O)cc(O)c1C(=O)O [lecanoric acid]	–	–	–	–	–	–	–	–	–	–	–	effect on HCT-116 cells [17]: affected the cell viability and colony formation, and it induced a cell cycle block
Cc1cc(O)cc(O)c1C(=O)OCC(O)C(O)CO (centres unmarked) [Compound 3, montagnetol]	–	–	–	–	–	–	–	–	–	–	–	melting point: 158 to 160 °C
